Data from paper PMC9964323, “New Titanocene (IV) Dicarboxylates with Potential Cytotoxicity: Synthesis, Structure, Stability and Electrochemistry” (International Journal of Molecular Sciences, 2023).
“Also recorded” adds a separate entry of the source.

Tests used:
[1] = Cyclic voltammetry (reduction potentials); format: physicochemical; conditions: for Ered, first reduction potential: first value of cell; for Ered, first reduction potential / Ered, second reduction potential: DMF, 0.05 M Bu4NClO4, glass-carbon electrode, vs Ag/AgCl/KCl (sat.), 100 mV/s, C = 1 × 10^−1 mol L^−1; for Ered, second reduction potential: second value of cell
Experimental: It was shown that, as expected, the reduction potentials of Ti (IV) for all compounds depend on the structure of the carboxylate-containing ligand, in particular, the presence of donor and acceptor substituents in the ligand benzene ring (Table 3).
Cyclic Voltammetry experiments were conducted using an IPC Pro M potentiostat (Russia) with cyclic voltammetry (CV) and rotating disk electrode (RDE) techniques. Glass-carbon (d = 2 mm) disks were used as the working electrodes, 0.05 M Bu4NClO4 solution in DMF served as the supporting electrolyte, and Ag/AgCl/KCl (sat.) was used as the reference electrode. The potential scan rates were 100 mV/s. Samples were dissolved in the predeaerated solvent.

[2] = Stability in aqueous media (hydrolysis followed by optical absorption at 330 nm); format: physicochemical; conditions: 0.4 mM, 10% DMSO 90% water
Text: The decrease in the concentration of the coordination compound was estimated from the decrease in the optical absorption at a wavelength of 330 nm. We considered it inappropriate to use the optical absorption maximum in the range of 230–300 nm for similar purposes because the absorption of the initial coordination compound, free carboxylate-containing ligands, and cyclopentadiene may overlap in this region.
Stability in aqueous media was studied by recording the full optical absorption spectra of solutions of the studied titanocene derivatives with an initial concentration of 0.4 mM in the solvent system (10% DMSO 90% water) at different time intervals. The change in the concentration of the studied compound was evaluated by the decrease in optical absorption at a wavelength of 330 nm. Full absorption spectra of studied compounds are presented as Figure S7 in the Supplementary Materials.

[3] = set-up: method as in PMID 9704729, PMID 9829732; conditions: phase I clinical trials; cited from earlier work
[4] = tested on: metastatic breast and colon tumors; conditions: phase II clinical trials, dose of 240 mg/m^2; cited from earlier work
[5] = tested on: platinum-resistant cell lines; set-up: method as in PMID 8499130; conditions: cited from earlier work
[6] = tested on: adenocarcinoma of the lung, breast, and gastrointestinal tract; set-up: method as in PMID 111586, PMID 7988618; conditions: cited from earlier work
[7] = tested on: Ehrlich ascites carcinoma; set-up: method as in PMID 111586; conditions: cited from earlier work

Row | Molecule | Ered, first reduction potential [1] | Ered, second reduction potential [1] | hydrolysis rate / stability in aqueous media [2] | also measured
1 | O=C([O-])c1ccccc1.O=C([O-])c1ccccc1.[Ti+4].c1cc[cH-]c1.c1cc[cH-]c1 [2a, bis(η^5-cyclopentadienyl)bis(benzoato)titanium(IV)] | −0.85 V | −2.17 V | – | –
2 | CC(=O)Oc1ccccc1C(=O)[O-].CC(=O)Oc1ccccc1C(=O)[O-].[Ti+4].c1cc[cH-]c1.c1cc[cH-]c1 [2f, bis(η^5-cyclopentadienyl)bis(2-acetoxybenzoato)titanium(IV)] | −0.81 V | −2.11 V | – | –
3 | O=C([O-])c1c(F)c(F)c(F)c(F)c1F.O=C([O-])c1c(F)c(F)c(F)c(F)c1F.[Ti+4].c1cc[cH-]c1.c1cc[cH-]c1 [2e, bis(η^5-cyclopentadienyl)bis(pentafluorobenzoato)titanium(IV)] | −0.57 V | −1.81 V | hydrolyzed more slowly than compound 2b; also recorded: slower | half-life time in water [2]: approximately 3 h
4 | bis(η^5-cyclopentadienyl)salicylatotitanium(IV) [2g] | −0.90 V | – | Hydrolysis proceeds slowly | Reversibility of reduction ([1]; CV in DMF): reversibly reduced and oxidized and rev
5 | [Cl-].[Cl-].[Ti+4].c1cc[cH-]c1.c1cc[cH-]c1 [Cp2TiCl2, Titanocene dichloride] | −0.62 V | −1.85 V | lower stability in aqueous media compared to the carboxylate-containing analogues | dose-dependent side effects [3]: mild nephrotoxicity, fatigue, and bilierubinimia; therapeutic effect [4]: did not show a therapeutic effect; cytotoxicity [5]: pronounced cytotoxicity; cytotoxicity [6]: pronounced cytotoxicity; cure ([7]; Ehrlich ascites carcinoma inoculated into mice): 80%; side effects associated with drug toxicity ([7]; Ehrlich ascites carcinoma inoculated into xenograft mice): no noticeable side effects
6 | [N-]=[N+]=Nc1ccc(C(=O)[O-])cc1.[N-]=[N+]=Nc1ccc(C(=O)[O-])cc1.[Ti+4].c1cc[cH-]c1.c1cc[cH-]c1 [2c, bis(η^5-cyclopentadienyl)bis(4-azidobenzoato)titanium(IV)] | −0.78 V | −2.01 V | – | –
7 | O=C([O-])c1cccc(F)c1.O=C([O-])c1cccc(F)c1.[Ti+4].c1cc[cH-]c1.c1cc[cH-]c1 [2d, bis(η^5-cyclopentadienyl)bis(3-fluorobenzoato)titanium(IV)] | −0.79 V | −2.05 V | – | –
8 | bis(η^5-cyclopentadienyl)bis(4-benzoxybenzoato)titanium(IV) [2b] | −0.88 V | −2.21 V | – | half-life time in water [2]: approximately 3 h
